Assay results reported in patent US11266147B2, “Fungicidal oxadiazoles” (Bayer Aktiengesellschaft, priority 2017, dated 2022).

Assay: LogP by HPLC on reversed phase columns (EEC directive 79/831 Annex V.A8)
Type: physicochemical
Settings: method [a]: LC-UV, acidic range, 0.1% formic acid in water and acetonitrile, linear gradient 10% to 95% acetonitrile
Protocol: [table] If more than one LogP value is available within the same method, all the values are given and separated by “+”. Calibration was done with straight-chain alkan2-ones (with 3 to 16 carbon atoms) with known LogP values (measurement of LogP values using retention times with linear interpolation between successive alkanones). Lambda-max-values were determined using UV-spectra from 200 nm to 400 nm and the peak values of the chromatographic signals.

Row | SMILES | LogP
1 | Cc1ccnc(Nc2ccc(-c3noc(C(F)(F)F)n3)cc2)n1 [Compound I-06] | 3.83^[a]
2 | FC(F)(F)c1nc(-c2cnc(NC3CCCC3)nc2)no1 [Compound I-08] | 3.83^[a]
3 | FC(F)(Cl)c1nc(-c2cnc(NC3CC3C(F)(F)F)nc2)no1 (stereo not shown) [Compound I-09] | 3.65^[a]
4 | FC(F)(F)c1nc(-c2cnc(NC3CCOC3)nc2)no1 (stereo not shown) [Compound I-10] | 2.35^[a]
5 | FC(F)(Cl)c1nc(-c2cnc(NC3CCOC3)nc2)no1 (stereo not shown) [Compound I-11] | 2.55^[a]
6 | CN(c1ncc(-c2noc(C(F)(F)Cl)n2)cn1)C1CCCC1 [Compound I-12] | 5.42^[a]
7 | CC(=O)N1CCC(Nc2ncc(-c3noc(C(F)(F)F)n3)cn2)CC1 [Compound I-13] | 2.17^[a]
8 | CC1(Nc2ncc(-c3noc(C(F)(F)Cl)n3)cn2)CC1 [Compound I-14] | 3.25^[a]
9 | FC(F)(Cl)c1nc(-c2cnc(NC3CCOCC3)nc2)no1 [Compound I-15] | 2.76^[a]
10 | FC(F)(F)c1nc(-c2cnc(NC3CCOCC3)nc2)no1 [Compound I-16] | 2.57^[a]
11 | FC(F)(F)c1nc(-c2cnc(NC3(c4ccccc4)CC3)nc2)no1 [Compound I-17] | 3.74^[a]
12 | FC1(F)CC(Nc2ncc(-c3noc(C(F)(F)Cl)n3)cn2)C1 [Compound I-18] | 3.48^[a]
13 | FC(F)(Cl)c1nc(-c2cnc(NC3Cc4ccccc4C3)nc2)no1 [Compound I-19] | 4.49^[a]
14 | CC(=O)N1CCC(Nc2ncc(-c3noc(C(F)(F)Cl)n3)cn2)CC1 [Compound I-20] | 2.32^[a]
15 | FC(F)(F)c1nc(-c2cnc(NC3CC3C(F)(F)F)nc2)no1 (stereo not shown) [Compound I-21] | 3.46^[a]
16 | O=S1(=O)CCC(Nc2ncc(-c3noc(C(F)(F)F)n3)cn2)C1 (stereo not shown) [Compound I-22] | 2.15^[a]
17 | FC(F)(F)c1nc(-c2cnc(NC3(c4ccccn4)CCC3)nc2)no1 [Compound I-23] | 1.96^[a]
18 | FC(F)(Cl)c1nc(-c2cnc(NC3(c4ccccn4)CCC3)nc2)no1 [Compound I-24] | 2.13^[a]
19 | CC1(Nc2ncc(-c3noc(C(F)(F)F)n3)cn2)CC1 [Compound I-25] | 3.04^[a]
20 | FC(F)(F)c1nc(-c2cnc(NC3Cc4ccccc4C3)nc2)no1 [Compound I-26] | 4.27^[a]
21 | FC(F)(Cl)c1nc(-c2cnc(NC3CC3)nc2)no1 [Compound I-27] | 2.76^[a]

Row | SMILES | LogP
22 | FC(F)(Cl)c1nc(-c2cnc(NC3CCCC3)nc2)no1 [Compound I-28] | 4.08^[a]
23 | FC(F)(Cl)c1nc(-c2cnc(NC3(c4ccccc4)CC3)nc2)no1 [Compound I-29] | 3.94^[a]
24 | O=S1(=O)CCC(Nc2ncc(-c3noc(C(F)(F)Cl)n3)cn2)C1 (stereo not shown) [Compound I-30] | 2.32^[a]
25 | FC(F)(F)c1nc(-c2cnc(NC3CC3)nc2)no1 [Compound I-31] | 2.57^[a]
26 | FC1(F)CC(Nc2ncc(-c3noc(C(F)(F)F)n3)cn2)C1 [Compound I-32] | 3.29^[a]
27 | FC(F)(Cl)c1nc(-c2cnc(NC3=NCCS3)nc2)no1 [Compound I-33] | 1.26^[a]
28 | FC(F)(F)c1nc(-c2cnc(NC3=NCCS3)nc2)no1 [Compound I-34] | 1.08^[a]
29 | Cc1cccc(Nc2ccc(-c3noc(C(F)(F)F)n3)cc2)c1 [Compound I-35] | 4.93^[a]
30 | FC(F)(F)c1cccc(Nc2ccc(-c3noc(C(F)(F)F)n3)cc2)c1 [Compound I-36] | 5.08^[a]
31 | FC(F)(F)c1nc(-c2ccc(Nc3ccccc3)cc2)no1 [Compound I-37] | 4.56^[a]
32 | FC(F)(F)c1nc(-c2ccc(Nc3ccc(Cl)cc3)cc2)no1 [Compound I-38] | 5.00^[a]
33 | FC(F)(F)Oc1ccccc1Nc1ccc(-c2noc(C(F)(F)F)n2)cc1 [Compound I-39] | 5.11^[a]
34 | Cc1ccnc(Nc2ccc(-c3noc(C(F)(F)Cl)n3)cc2)n1 [Compound I-40] | 2.98^[a]
35 | Fc1ccccc1Nc1ncc(-c2noc(C(F)(F)Cl)n2)cn1 [Compound I-41] | 3.94^[a]
36 | Fc1ccc(Nc2ncc(-c3noc(C(F)(F)F)n3)cn2)c(F)c1 [Compound I-42] | 3.70^[a]
37 | FC(F)Oc1ccc(Nc2ncc(-c3noc(C(F)(F)F)n3)cn2)cc1 [Compound I-43] | 3.92^[a]
38 | Fc1cccc(Nc2ncc(-c3noc(C(F)(F)F)n3)cn2)c1 [Compound I-44] | 3.94^[a]
39 | COc1cccc(Nc2ncc(-c3noc(C(F)(F)F)n3)cn2)c1 [Compound I-45] | 3.76^[a]
40 | FC(F)(F)c1nc(-c2cnc(Nc3cccc(Cl)c3)nc2)no1 [Compound I-46] | 4.34^[a]
41 | FC(F)(F)c1nc(-c2cnc(Nc3ccccc3Cl)nc2)no1 [Compound I-47] | 4.20^[a]
42 | N#CCc1ccc(Nc2ncc(-c3noc(C(F)(F)F)n3)cn2)cc1 [Compound I-48] | 3.27^[a]

Row | SMILES | LogP
43 | FC(F)(F)c1nc(-c2cnc(Nc3ccc4c(c3)OCO4)nc2)no1 [Compound I-49] | 3.50^[a]
44 | CC(=O)Nc1cccc(Nc2ncc(-c3noc(C(F)(F)F)n3)cn2)c1 [Compound I-50] | 2.59^[a]
45 | N#Cc1cccc(Nc2ncc(-c3noc(C(F)(F)F)n3)cn2)c1 [Compound I-51] | 3.52^[a]
46 | COc1cc(Nc2ncc(-c3noc(C(F)(F)F)n3)cn2)ccc1C [Compound I-52] | 4.30^[a]
47 | FC(F)(F)c1cccc(Nc2ncc(-c3noc(C(F)(F)F)n3)cn2)c1 [Compound I-53] | 4.46^[a]
48 | COc1ccccc1Nc1ncc(-c2noc(C(F)(F)F)n2)cn1 [Compound I-54] | 4.18^[a]
49 | FC(F)(F)c1nc(-c2cnc(Nc3ccc(S(F)(F)(F)(F)F)cc3)nc2)no1 [Compound I-55] | 4.80^[a]
50 | Cc1cccc(Nc2ncc(-c3noc(C(F)(F)F)n3)cn2)c1 [Compound I-56] | 4.13^[a]
51 | FC(F)(F)c1nc(-c2cnc(Nc3ccon3)nc2)no1 [Compound I-57] | 2.50^[a]
52 | FC(F)(F)c1nc(-c2cnc(Nc3ccsc3)nc2)no1 [Compound I-58] | 3.70^[a]
53 | COc1ccc(Nc2ncc(-c3noc(C(F)(F)F)n3)cn2)cc1 [Compound I-59] | 3.57^[a]
54 | FC(F)(F)c1nc(-c2cnc(Nc3cccc4c3CCC4)nc2)no1 [Compound I-60] | 4.44^[a]
55 | FC(F)(F)c1nc(-c2cnc(Nc3ccccc3)nc2)no1 [Compound I-61] | 3.74^[a]
56 | FC(F)(F)c1nc(-c2cnc(Nc3ccc(Cl)cc3)nc2)no1 [Compound I-62] | 4.34^[a]
57 | Fc1ccc(Nc2ncc(-c3noc(C(F)(F)F)n3)cn2)cc1 [Compound I-63] | 3.79^[a]
58 | FC(F)(Cl)c1nc(-c2cnc(Nc3ccon3)nc2)no1 [Compound I-64] | 2.71^[a]
59 | FC(F)(Cl)c1nc(-c2cnc(Nc3ccsc3)nc2)no1 [Compound I-65] | 3.92^[a]
60 | COc1ccc(Nc2ncc(-c3noc(C(F)(F)Cl)n3)cn2)cc1 [Compound I-66] | 3.79^[a]
61 | FC(F)(Cl)c1nc(-c2cnc(Nc3ccc(Cl)cc3)nc2)no1 [Compound I-67] | 4.56^[a]
62 | Cc1cccc(Nc2ncc(-c3noc(C(F)(F)Cl)n3)cn2)c1 [Compound I-68] | 4.34^[a]
63 | FC(F)Oc1ccc(Nc2ncc(-c3noc(C(F)(F)Cl)n3)cn2)cc1 [Compound I-69] | 4.11^[a]

Row | SMILES | LogP
64 | FC(F)(Cl)c1nc(-c2cnc(Nc3ccc4c(c3)OCO4)nc2)no1 [Compound I-70] | 3.72^[a]
65 | FC(F)(Cl)c1nc(-c2cnc(Nc3ccccc3)nc2)no1 [Compound I-71] | 3.96^[a]
66 | Fc1ccc(Nc2ncc(-c3noc(C(F)(F)Cl)n3)cn2)cc1 [Compound I-72] | 3.99^[a]
67 | FC(F)(Cl)c1nc(-c2cnc(Nc3cccc4c3CCC4)nc2)no1 [Compound I-73] | 4.69^[a]
68 | CC(=O)Nc1cccc(Nc2ncc(-c3noc(C(F)(F)Cl)n3)cn2)c1 [Compound I-74] | 2.75^[a]
69 | Fc1ccc(Nc2ncc(-c3noc(C(F)(F)Cl)n3)cn2)c(F)c1 [Compound I-75] | 3.92^[a]
70 | Fc1cccc(Nc2ncc(-c3noc(C(F)(F)Cl)n3)cn2)c1 [Compound I-76] | 4.18^[a]
71 | FC(F)(Cl)c1nc(-c2cnc(Nc3ccccc3Cl)nc2)no1 [Compound I-77] | 4.46^[a]
72 | COc1ccccc1Nc1ncc(-c2noc(C(F)(F)Cl)n2)cn1 [Compound I-78] | 4.41^[a]
73 | FC(F)(Cl)c1nc(-c2cnc(Nc3cccc(Cl)c3)nc2)no1 [Compound I-79] | 4.56^[a]
74 | COc1cccc(Nc2ncc(-c3noc(C(F)(F)Cl)n3)cn2)c1 [Compound I-80] | 3.96^[a]
75 | COc1cc(Nc2ncc(-c3noc(C(F)(F)Cl)n3)cn2)ccc1C [Compound I-81] | 4.51^[a]
76 | N#Cc1cccc(Nc2ncc(-c3noc(C(F)(F)Cl)n3)cn2)c1 [Compound I-82] | 3.72^[a]
77 | FC(F)(Cl)c1nc(-c2cnc(Nc3ccc(S(F)(F)(F)(F)F)cc3)nc2)no1 [Compound I-83] | 5.00^[a]
78 | N#CCc1ccc(Nc2ncc(-c3noc(C(F)(F)Cl)n3)cn2)cc1 [Compound I-84] | 3.46^[a]
79 | FC(F)(F)c1cccc(Nc2ncc(-c3noc(C(F)(F)Cl)n3)cn2)c1 [Compound I-85] | 4.69^[a]
80 | FC(F)(F)c1nc(-c2cnc(Nc3nc4c(s3)CCC4)nc2)no1 [Compound I-86] | 3.81^[a]
81 | FC(F)(F)c1nc(-c2cnc(Nc3ccc4ncccc4c3)nc2)no1 [Compound I-87] | 1.98^[a]

Same assay, conditions: reversed phase HPLC column; method [a]: LC-UV, acidic range, 0.1% formic acid in water and acetonitrile, linear gradient 10% to 95% acetonitrile

Row | chromatographic logP | SMILES
82 | 3.23 | CC(=O)N(c1ncc(-c2noc(C(F)(F)F)n2)cn1)c1ccccc1F [Compound I-07, N-(2-fluorophenyl)-N-{5-[5-(trifluoromethyl)-1,2,4-oxadiazol-3-yl]pyrimidin-2-yl}acetamide]
